This note sets out measurements from US8802638B1, “Flavonoid treatment of glycogen synthase kinase-based disease” (University of South Florida, priority 2007, dated 2014).

One assay concerns GSK-3α/β. In words: Western blot of phosphorylated GSK-3α/β forms in SweAPP N2a cells. Type of assay: cell-based, murine. The following applies: 20 μM. On the procedure:
Cultured cells or mouse brain were lysed in ice-cold lysis buffer described above, and an aliquot corresponding to 50 μg of total protein was electrophoretically separated using 12% Tris-HCl or 16.5% Tris-tricine gels. Electrophoresed proteins were then transferred to PVDF membranes, washed in dH2O, and blocked for 1 hr at ambient temperature in Tris-buffered saline (TBS; Bio-Rad) containing 5% (w/v) non-fat dry milk. After blocking, membranes were hybridized for 1 hr at ambient temperature with various primary antibodies. Membranes were then washed 3× for 5 min each in dH2O and incubated for 1 hr at ambient temperature with the appropriate HRP-conjugated secondary antibody (1:1,000). Antibodies were obtained against the amino-terminus and carboxyl-terminus of PS1 (Chemicon, Temecula, Calif.), amino-terminus and carboxyl-terminus of APP (22C11), actin (Roche, Basel, Switzerland), Aβ (6E10, 48G) (Signet Laboratories, Dedham, Mass.), phosphor-GSK3α (ser^21, clone BK202) (Upstate, Lake Placid, N.Y.), phospho-GSK3α/β (pTyr^279/216) (Sigma), phospho-GSK-3β (Ser^9) (Sigma) and total GSK-3α/β (Sigma). All antibodies were diluted in TBS containing 5% (w/v) of non-fat dry milk. Blots were developed using the luminol reagent (Pierce Biotechnology). Densitometric analysis was done as previously described using a FluorS Multiimager with Quantity One™ software (39). […] Antibodies used for Western blot included the APP-carboxyl-terminal antibody (1:50)), amino-terminal APP antibody (clone 22C11), or 6E10 (1:1,000), or actin antibody (1:1,500; as an internal reference control). γ-secretase activity was quantified in cell lysates using available kits based on secretase-specific peptides conjugated to fluorogenic reporter molecules.
The effect luteolin had on a variety of proteins related to and/or required for proper functioning of the γ-secretase complex was evaluated to establish the mechanism whereby luteolin modulates γ-secretase activity and subsequent Aβ generation. […]
(Immunoblotting shows a protein as a band on a membrane.)

A further assay relates to Tg2576 mice. Briefly: cerebral Aβ levels by ELISA in luteolin-treated Tg2576 mice. In kind it is in vivo. The following applies: 20 mg/kg i.p. daily for 30 days. On the procedure: Sixteen (8♂/8♀) Tg2576 mice (Taconic, Germantown, N.Y.) were used; 8 mice received luteolin, and the other 8 received phosphate buffered saline (PBS). Beginning at 8 months of age, Tg2576 mice were intraperitoneally injected with luteolin (20 mg/kg) or PBS daily for 30 days based on previously described methods. These mice were then sacrificed at 9 months of age for analyses of Aβ levels and Aβ load in the brain according to previously described methods. Animals were housed and maintained in the College of Medicine Animal Facility at the University of South Florida (USF), and all experiments were in compliance with protocols approved by the USF Institutional Animal Care and Use Committee.
Eight month-old Tg2576 mice were treated with 20 mg/kg luteolin administered by daily intraperitoneal injection for 30 days to validate the above findings in vivo. […] Phospho-GSK-3α/β-positive neuronal cells were examined under bright-field using an Olympus BX-51 microscope.
Brain homogenates were immunoprecipitated by PS1 antibody and probed for APP to confirm the proposed mechanism. […] To assess this decrease, ELISA was conducted on both soluble and insoluble Aβ1-40, 42.
(An ELISA detects its analyte on a solid surface through an enzyme-linked reagent.)

Regarding `O=c1cc(-c2ccc(O)c(O)c2)oc2cc(O)cc(O)c12` [luteolin], the “overall expression of GSK3-α or β” value with GSK-3α/β (Western blot) was “no significant changes”. The “selectivity of GSK-3α over GSK-3β inactivation” value in the assay with GSK-3α/β (time course) was “selectively inactivates GSK-3α isoforms over β isoforms”. Besides, in the assay on Tg2576 mice, the “reduction of soluble Aβ1-40 in brain homogenates” value worked out at 25% and the “reduction of soluble Aβ1-42 in brain homogenates” value came to 49%.
